According to patent US5160727A, “Tumor cell sensitization method using quinazolinedione derivatives” (priority 1990, dated 1992):
Counter-ions that a name gives are not always drawn. Like-named read-outs stand apart in the source and are kept apart here.

What was measured:
Type in all cases: cell-based, murine
P388S cells = test: 72-hour growth inhibition of drug-sensitive P388S cells by anticancer drug alone or with modifier (Table I); conditions: for IC50: Mus musculus, P388/S, 72 h, mean of two experiments in triplicate; for effect on adriamycin activity in drug-sensitive parent P388S cells: modifier with adriamycin
Experimental: (§1) In performing the studies P388 that were sensitive to adriamycin (P388S) and P388 cells that were resistant to adriamycin (P388/ADR) were exposed to various concentrations of anticancer drug either alone or together with 5 μg/mL of modifier or sensitizer for 72 hours.
(§2) The P388 murine leukemia cells used in obtaining the data set forth in Table I and Table II were obtained from Southern Research Institute (Birmingham, Ala.) and were cultured from ascites fluids of tumor-bearing DMA/2 mice and maintained in Fischer's medium supplemented with 10% horse serum, 10 μM 2-mercaptoethanol, and gentamycin (50 μg/mL). Cells were counted with a Model ZF Coulter Counter (Coulter Electronics, Inc., Hialeah, Fla.). Viability was determined by trypan blue exclusion. The general methodology is described by W. D. Klohs, et al, Cancer Research 46, 4352-4356 (September 1986) and W. D. Klohs, et al, J. Nat'l. Cancer Inst. 75, 353-359 (1985).

P388/ADR cells = test: 72-hour growth inhibition of adriamycin-resistant P388/ADR cells by anticancer drug alone or with modifier (Table I); conditions: Mus musculus
Experimental: as §1, §2

MDR P388 cells = test: Intracellular drug levels in MDR P388 cells; conditions: mechanism of chemosensitization
P388R cells [1] = test: Comparative chemosensitization studies in resistant P388R cells; conditions: for effect of serum proteins on chemosensitizing activity: MDR cells
Experimental: as §1, §2

P388R cells [2] = test: Potentiation of adriamycin activity and cell growth in P388 resistant cells (Table II); conditions: for Degree of ADR Potentiation in P388R: footnote a (drawing 3)
Experimental: as §2, with “The general methodology is described by W. D. Klohs, et al, Cancer Research 46, 4352-4356 (September 1986) and W. D. Klohs, et al, J. Nat'l.” left out, “Inst.” for “Inst. 75, 353-359 (1985).”

[3] = P388S, anticancer drug alone, modifier none, read-out: ID50 (concentration that inhibits 72-hour cell growth by 50%)
[4] = P388S, anticancer drug with modifier CsA (cyclosporin A) 5 μg/mL, read-out: ID50 (concentration that inhibits 72-hour cell growth by 50%)
[5] = P388S, anticancer drug with modifier TIOP (tioperidone) 5 μg/mL, read-out: ID50 (concentration that inhibits 72-hour cell growth by 50%)
[6] = P388S, anticancer drug with modifier VER (verapamil) 5 μg/mL, read-out: ID50 (concentration that inhibits 72-hour cell growth by 50%)
[7] = anticancer drug alone, modifier none, mean of two experiments in triplicate, read-out: ID50 (concentration that inhibits 72-hour cell growth by 50%)
[8] = anticancer drug with modifier CsA (cyclosporin A) 5 μg/mL, mean of two experiments in triplicate, read-out: ID50 (concentration that inhibits 72-hour cell growth by 50%)
[9] = anticancer drug with modifier TIOP (tioperidone) 5 μg/mL, mean of two experiments in triplicate, read-out: ID50 (concentration that inhibits 72-hour cell growth by 50%)
[10] = anticancer drug with modifier VER (verapamil) 5 μg/mL, mean of two experiments in triplicate, read-out: ID50 (concentration that inhibits 72-hour cell growth by 50%)

## COc1cccc2c1C(=O)c1c(O)c3c(c(O)c1C2=O)C[C@@](O)(C(=O)CO)C[C@@H]3O[C@H]1C[C@H](N)[C@H](O)[C@H](C)O1 [Adriamycin]
P388S cells; [3]
  IC50: 156 nM
P388S cells; [4]
  IC50: 147 nM
P388S cells; [5]
  IC50: 152 nM
P388S cells; [6]
  IC50: 152 nM
P388/ADR cells; [7]
  IC50: 7820 nM
P388/ADR cells; [8]
  IC50: 195 nM
P388/ADR cells; [9]
  IC50: 174 nM
P388/ADR cells; [10]
  IC50: 710 nM

## CNCCNc1ccc2c3c(nn2CCNCCO)-c2c(O)ccc(O)c2C(=O)c13 [CI-937, 7,10-dihydroxy-2-[2-[(2-hydroxyethyl)amino]ethyl]-5-[[2-(methylamino)ethyl]amino]anthra[1,9-cd]pyrazol-6(2H)-one dihydrochloride]
P388S cells; [3]
  IC50: 145 nM
P388S cells; [4]
  IC50: 135 nM
P388S cells; [5]
  IC50: 145 nM
P388S cells; [6]
  IC50: 147 nM
P388/ADR cells; [7]
  IC50: 5730 nM
P388/ADR cells; [8]
  IC50: 151 nM
P388/ADR cells; [9]
  IC50: 132 nM
P388/ADR cells; [10]
  IC50: 524 nM

## COc1cccc2c1C(=O)c1c(O)c3c(c(O)c1C2=O)C[C@@](O)(C(C)=O)C[C@@H]3O[C@H]1C[C@H](N)[C@H](O)[C@H](C)O1 [Daunomycin]
P388S cells; [3]
  IC50: 98 nM
P388S cells; [4]
  IC50: 95 nM
P388S cells; [5]
  IC50: 96 nM
P388S cells; [6]
  IC50: 93 nM
P388/ADR cells; [7]
  IC50: 2770 nM
P388/ADR cells; [8]
  IC50: 108 nM
P388/ADR cells; [9]
  IC50: 103 nM
P388/ADR cells; [10]
  IC50: 329 nM

## COc1cc([C@@H]2c3cc4c(cc3[C@@H](O[C@@H]3O[C@@H]5CO[C@@H](C)O[C@H]5[C@H](O)[C@H]3O)[C@H]3COC(=O)[C@H]23)OCO4)cc(OC)c1O [Etoposide]
P388S cells; read-out: ID50 (concentration that inhibits 72-hour cell growth by 50%), P388S, anticancer drug alone, modifier none
  IC50: 24.1 nM
P388S cells; read-out: ID50 (concentration that inhibits 72-hour cell growth by 50%), P388S, anticancer drug with modifier CsA (cyclosporin A) 5 μg/mL
  IC50: 19.8 nM
P388S cells; read-out: ID50 (concentration that inhibits 72-hour cell growth by 50%), P388S, anticancer drug with modifier TIOP (tioperidone) 5 μg/mL
  IC50: 21.2 nM
P388S cells; read-out: ID50 (concentration that inhibits 72-hour cell growth by 50%), P388S, anticancer drug with modifier VER (verapamil) 5 μg/mL
  IC50: 20.1 nM
P388/ADR cells; read-out: ID50 (concentration that inhibits 72-hour cell growth by 50%), P388/ADR, anticancer drug alone, modifier none, mean of two experiments in triplicate
  IC50: 5100 nM
P388/ADR cells; read-out: ID50 (concentration that inhibits 72-hour cell growth by 50%), P388/ADR, anticancer drug with modifier CsA (cyclosporin A) 5 μg/mL, mean of two experiments in triplicate
  IC50: 252 nM
P388/ADR cells; read-out: ID50 (concentration that inhibits 72-hour cell growth by 50%), P388/ADR, anticancer drug with modifier TIOP (tioperidone) 5 μg/mL, mean of two experiments in triplicate
  IC50: 433 nM
P388/ADR cells; read-out: ID50 (concentration that inhibits 72-hour cell growth by 50%), P388/ADR, anticancer drug with modifier VER (verapamil) 5 μg/mL, mean of two experiments in triplicate
  IC50: 872 nM

## CCCSc1ccccc1N1CCN(CCCCn2c(=O)[nH]c3ccccc3c2=O)CC1 [Example 1, 3-[4-[4-[2-(propylthio)phenyl]-1-piperazinyl]butyl-2,4-(1H,3H)-quinazolinedione (tioperidone)monohydrochloride]
P388S cells
  effect on adriamycin activity in drug-sensitive parent P388S cells: little effect
MDR P388 cells
  effect on intracellular drug levels in MDR P388 cells: increasing the intracellular drug levels
P388R cells [1]
  effect of serum proteins on chemosensitizing activity: does not appear to be altered by serum proteins
P388R cells [1]; compared with verapamil, amiodarone and cyclosporin A
  potentiating the activity of adriamycin in P388R cells: superior to all of the other agents
P388R cells [1]; modifier with vincristine, trimetrexate or CI-937
  sensitization of P388R cells to vincristine, trimetrexate, and CI-937: fully sensitized
P388R cells [2]; Mus musculus, P388, test compound at 5 μM, read-out: % of Control Cell Growth
  activity at 5 µM: 100%
P388R cells [2]; Mus musculus, P388, test compound at 10 μM, read-out: % of Control Cell Growth
  activity at 10 µM: 98%
P388R cells [2]; test compound at 5 μM with adriamycin
  Degree of ADR Potentiation in P388R: 20.8
P388R cells [2]; test compound at 10 μM with adriamycin
  Degree of ADR Potentiation in P388R: 44.7

## COc1cc(NCc2ccc3nc(N)nc(N)c3c2C)cc(OC)c1OC [Trimetrexate]
P388S cells; [3]
  IC50: 12 nM
P388S cells; [4]
  IC50: 11 nM
P388S cells; [5]
  IC50: 12 nM
P388S cells; [6]
  IC50: 12 nM
P388/ADR cells; [7]
  IC50: 270 nM
P388/ADR cells; [8]
  IC50: 12 nM
P388/ADR cells; [9]
  IC50: 14 nM
P388/ADR cells; [10]
  IC50: 29 nM

## CC[C@]1(O)C[C@H]2CN(CCc3c([nH]c4ccccc34)[C@@](C(=O)OC)(c3cc4c(cc3OC)N(C=O)[C@H]3[C@@](O)(C(=O)OC)[C@H](OC(C)=O)[C@]5(CC)C=CCN6CC[C@]43[C@@H]65)C2)C1 [Vincristine]
P388S cells; [3]
  IC50: 21 nM
P388S cells; [4]
  IC50: 21 nM
P388S cells; [5]
  IC50: 20 nM
P388S cells; [6]
  IC50: 21 nM
P388/ADR cells; [7]
  IC50: 554 nM
P388/ADR cells; [8]
  IC50: 27 nM
P388/ADR cells; [9]
  IC50: 22 nM
P388/ADR cells; [10]
  IC50: 30 nM

## CCCCc1oc2ccccc2c1C(=O)c1cc(I)c(OCCN(CC)CC)c(I)c1 [amiodarone, reference compound]
P388R cells [1]
  effect of serum proteins on chemosensitizing activity: diminished by binding to serum proteins

## cyclosporin A
P388S cells
  effect on adriamycin activity in drug-sensitive parent P388S cells: little effect
